Measurements published in US20110160311A1, “Sweetness Enhancers, Compositions Thereof, and Methods for Use” (The Coca-Cola Company, priority 2009, published 2011).

What was measured:
[1] = Sweetness detection threshold level in water, multi-sip and swallow taste method; format: in vivo, human; settings: for Sweetness Detection Threshold Level: in water at room temperature
Excerpt: As used herein, the terms “sweetness threshold,” “sweetness recognition threshold,” and “sweetness detection threshold” are understood to mean the level at which the lowest known concentration of a certain sweet compound that is perceivable by the human sense of taste and it can vary from person to person. For example, a typical sweetness threshold level for sucrose in water can be 0.5%.
Further for example, the at least one sweetness enhancer to be used can be assayed in water at least 25% lower and at least 25% higher than the sucrose detection level of 0.5% in water to determine the sweetness threshold level.
(§1) A first sip (approximately 2.2 mL) of a ca. 20 mL control composition was taken and swallowed. After waiting for a time ranging from 15 to 25 seconds, a second sip of control composition was taken and swallowed, and the sweetness and/or taste of the control composition was noted. After waiting for a time ranging from 15 to 25 seconds, these steps were repeated with a comparative composition. The sweetness and taste differences between the control and the comparative composition were noted. For each tested composition, this cycle was repeated once to confirm the initial findings. All samples were measured at average 23.0° C.±1° C. between samples for consistent comparison and to minimize any effects of temperature on the perceived taste or sweetness of the composition.
(§2) To perform the taste test, three sweetener samples were paired with one additive and taste tested as described above. A three minute break was taken before tasting another three sweetener samples paired with a different additive. Up to 10 additives per day were used to minimize a fatigue factor. Before tasting, at least 1.5 hours elapsed after ingestion of any food, drink or nicotine. The tests were repeated on a different date to validate the initial findings.
The sweetness detection threshold levels for 21 entities were measured by a single assessor in water at room temperature according to the multi-sip and swallow taste method described herein.

[2] = Sweetness enhancement of glucose, fructose or sucrose at 6% SE in water by additive at its threshold level; format: in vivo, human; design: key: T: Slight thicker-like sweetness (not intensity factor).; No difference; N(S+): No difference but slightly more sweet (0.5-0.75%); +S: More sweetness intensity (~1.0% SE); ++S: Much more sweetness intensity (~2.0% SE); settings: room temperature, additive at its Table 1 threshold level; for Sensory result versus FRU 55,000 ppm: fructose at 6% SE in water; for Sensory result versus GLU 99,000 ppm: glucose at 6% SE in water; for Sensory result versus SUC 60,000 ppm: sucrose at 6% SE in water
Protocol: as §1, §2
The twenty-one entities above were combined in a concentration at the sweetness detection threshold level listed in Table 1, with one of Glucose (GLU), Fructose (FRU), and Sucrose (SUG), each at a fixed SE (Sucrose Equivalents) level of 6%. The sweetness of the compositions was measured as described above at room temperature.

[3] = By-products of 500 ppm REB A after two months of storage in phosphoric acid at RT; format: physicochemical; settings: approximated concentration of by-product of 500 ppm REB A
[4] = in water; cited from earlier work
[5] = Descriptive sensory analysis of lemon-lime carbonated beverages at 4° C.; format: in vivo, human; settings: 135 ppm rubusoside added to 8% HFSS lemon-lime beverage
Protocol: Three test products were prepare: a control beverage comprising 10.52% High Fructose Starch Syrup (HFSS), a lemon-lime prototype comprising 8% HFSS and 135 ppm rubusoside, and a standard lemon-lime beverage comprising 8% HFSS.
As part of study design, a full sensorial profile was determined using a Complete Block Design (CBD). All products were randomized and balanced. Each assessor evaluated all products sequentially. Each product was evaluated three times by each assessor. Eight minute time breaks between tasting samples. Unsalted cracker, 0.75% saline solution and mineral grade water was used as a mouth rinse and refresher before each sample. Each assessor was served 75 ml of chilled beverage (4° C.+/−1° C.). Table 5 provides the categories and the descriptions of the various attributes identified in Table 4.

[6] = Sweetness recognition threshold in lemon-lime carbonated beverage at 4° C.; format: in vivo, human; settings: lemon-lime carbonated beverage (citric buffer) at 4° C., average of six subjects
Protocol: Preliminarily, multi-levels of steviol glycoside solution in lemon-lime beverage at 4° C. were prepared by mixing the calculated formulations to obtain 450, 350, 250 and 150 ppm of steviol glycoside solutions. Those solutions were then tasted by six experienced subjects by using the sip-and-spit protocol disclosed herein. The sweetness recognition threshold for rubusoside was determined to be averaged 150 ppm. For sweetness enhancement test of rubusoside in lemon-lime beverage, it was decided to use a 10 percent less of sweetness recognition threshold or 135 ppm (150−10%=135).

[7] = Rubusoside sweetness detection threshold estimation in water, sip-and-spit, 5 subjects; format: in vivo, human; settings: 50 ppm solution in purified water, all 5 subjects
Protocol: Preliminarily, a 1,000 ppm steviol glycoside solution was prepared by dissolution of 20 mg steviol glycoside in 20 mL purified water. An aliquot (10 mL) of this solution was diluted to 20 mL with water to obtain a 500 ppm solution. Additional 1:1 serial dilutions were used to obtain 250, 125, 62.5, 31.2 and 15.6 ppm solutions. Those solutions were then tasted in ascending order of concentration by one experienced subject by using the sip-and-spit protocol disclosed herein. The subject's estimated sweetness detection threshold was determined to be at the lowest concentration at which sweetness was definitely observed.
Thereafter, a 200 ppm solution of rubusoside was prepared by dissolution of 20 mg rubusoside in 200 mL purified water. An aliquot (50 mL) of this solution then was diluted to 100 mL with water to obtain a 100 ppm solution. Additional 1:1 serial dilution steps were used to prepare 50 and 25 ppm solutions. These solutions then were tasted in ascending order of concentration by 5 experienced subjects by the sip-and-spit protocol.

[8] = Sweetness enhancement of glucose, fructose or sucrose at 6% SE in water by additive at its threshold level; format: in vivo, human; settings: for Sweetness of the composition after enhancement: from about 6% SE (sucrose control), REB C at 100 ppm, the other compound at 25 ppm
[9] = Rubusoside and 6% sucrose sweetness enhancement test; format: in vivo, human; settings: 50 mg rubusoside in 1 L of 6% sucrose; scale of 6-10 relative to 6-10% sucrose references; 6% sucrose reference rated 6.1
Protocol: Reference samples were prepared at 6, 7, 8, 9 and 10% sucrose (w/v). The test sample was prepared by addition of 50 mg of rubusoside to 1 L of 6% sucrose. The test sample was mixed with five sucrose control samples of various concentrations in the 6-10% sucrose range. Each of the six samples was then individually rated for sweetness intensity on a scale of 6-10 relative to the 6-10% sucrose references.
The Sweetness Intensity Rating ranged from 6 to 10, for each subject.

[10] = estimation sweetness/off-taste threshold in water at room temperature (RT)

Compound: Rebaudioside B
- Sweetness Threshold Level [1, 10]: 25 ppm
- Sweetness Detection Threshold Level ([1]; single assessor): 25 ppm
- Sensory result versus FRU 55,000 ppm [2]: N
- Sensory result versus GLU 99,000 ppm [2]: N
- Sensory result versus SUC 60,000 ppm [2]: N
- Levels After 2 Month of Storage [3]: 17 ppm

Compound: OC[C@H]1O[C@@](CO)(O[C@H]2O[C@H](CO)[C@@H](O)[C@H](O)[C@H]2O)[C@@H](O)[C@@H]1O [sucrose]
- Typical sweetness threshold level [4]: 0.5%

Compound: CC1=CC23CCC4C(C)(C(=O)O)CCCC4(C)C2CCC1(OC1OC(CO)C(O)C(OC2OC(CO)C(O)C(O)C2O)C1OC1OC(CO)C(O)C(O)C1O)C3 [13-[(2-O-β-D-glucopyranosyl-3-O-β-D-glucopyranosyl-β-D-glucopyranosyl)oxy] kaur-15-en-18-oic acid]
- Sweetness Threshold Level [1, 10]: 35 ppm
- Sweetness Detection Threshold Level ([1]; single assessor): 35 ppm
- Sensory result versus FRU 55,000 ppm [2]: N
- Sensory result versus GLU 99,000 ppm [2]: N
- Sensory result versus SUC 60,000 ppm [2]: N
- Levels After 2 Month of Storage [3]: 1 ppm

Compound: CC1(C(=O)O)CCCC2(C)C3CCC4(OC5OC(CO)C(O)C(OC6OC(CO)C(O)C(O)C6O)C5OC5OC(CO)C(O)C(O)C5O)CC3(CCC12)CC4(C)O [13-[(2-O-β-D-glucopyranosyl-3-O-β-D-glucopyranosyl-β-D-glucopyranosyl)oxy]-16-hydroxy kauran-18-oic acid]
- Sweetness Threshold Level ([1]; in water at RT, value is max. level for solubility): 500 ppm
- Sweetness Detection Threshold Level ([1]; value is max. level for solubility): 500 ppm
- Sensory result versus FRU 55,000 ppm [2]: N
- Sensory result versus GLU 99,000 ppm [2]: N
- Sensory result versus SUC 60,000 ppm [2]: N
- Levels After 2 Month of Storage [3]: 33 ppm

Compound: C=C1C[C@@]23CC[C@H]4[C@@](C)(CCC[C@@]4(C)C(=O)O[C@@H]4O[C@H](CO)[C@@H](O)[C@H](O)[C@H]4O)[C@@H]2CC[C@]1(O[C@@H]1O[C@H](CO)[C@@H](O)[C@H](O)[C@H]1O)C3 [Rubusoside]
- Times as sweet as the prototype without rubusoside [5]: 1.15 times
- Sweetness equivalence ([5]; interpolation of the data): 9.2 % HFSS
- Sweetness Detection Threshold Level ([1]; single assessor): 50 ppm
- Sweetness recognition threshold [6]: 150 ppm
- Taste of the solution [7]: absence of taste
- Sensory result versus FRU 55,000 ppm [2]: N(S+) (No difference but slightly more sweet (0.5-0.75%))
- Sensory result versus GLU 99,000 ppm [2]: N(S+) (No difference but slightly more sweet (0.5-0.75%))
- Sensory result versus SUC 60,000 ppm [2]: ++S (Much more sweetness intensity (~2.0% SE))
- Enhancement of the 6% sucrose ([8]; rubusoside at 50 ppm, 6% sucrose in water): about 2 % SE
- Average sweetness intensity rating [9]: 7.9

Compound: C[C@@]12CCC[C@@](C)(C(=O)O[C@@H]3O[C@H](CO)[C@@H](O)[C@H](O)[C@H]3O)[C@H]1CC[C@]13C=C(CO)[C@](O[C@@H]4O[C@H](CO)[C@@H](O)[C@H](O[C@@H]5O[C@H](CO)[C@@H](O)[C@H](O)[C@H]5O)[C@H]4O[C@@H]4O[C@H](CO)[C@@H](O)[C@H](O)[C@H]4O)(CC[C@H]12)C3 [13-[(2-O-β-D-glucopyranosyl-3-O-β-D-glucopyranosyl]-β-D-glucopyranosyl)oxy]-17-hydroxy-kaur-15-en-18-oic acid β-D-glucopyranosyl ester]
- Sweetness Threshold Level [1, 10]: 250 ppm
- Sweetness Detection Threshold Level ([1]; single assessor): 250 ppm
- Sensory result versus FRU 55,000 ppm [2]: N
- Sensory result versus GLU 99,000 ppm [2]: N
- Sensory result versus SUC 60,000 ppm [2]: N(S+) (No difference but slightly more sweet (0.5-0.75%))
- Levels After 2 Month of Storage [3]: 1 ppm

Compound: Rebaudioside C
- Sweetness Detection Threshold Level ([1]; single assessor): 100 ppm
- Sensory result versus FRU 55,000 ppm [2]: N(S+) (No difference but slightly more sweet (0.5-0.75%))
- Sensory result versus GLU 99,000 ppm [2]: N(S+) (No difference but slightly more sweet (0.5-0.75%))
- Sensory result versus SUC 60,000 ppm [2]: +S (More sweetness intensity (~1.0% SE))
- Sweetness of the composition after enhancement [8]: about 7 % SE

Compound: C=C1CC23CCC4C(C)(C(=O)OC5OC(CO)C(O)C(O)C5O)CCCC4(C)C2CCC1(OC1OC(CO)C(O)C(OC2OC(CO)C(O)C(O)C2O)C1OC1OC(CO)C(O)C(OC2OC(CO)C(O)C(O)C2O)C1O)C3 [13-[(2-O-(3-O-α-D-glucopyranosyl)-β-D-glucopyranosyl-3-O-β-D-glucopyranosyl-β-D-glucopyranosyl)oxy] kaur-16-en-18-oic acid β-D-glucopyranosyl ester]
- Sweetness Detection Threshold Level ([1]; single assessor): 25 ppm
- Sensory result versus FRU 55,000 ppm [2]: N(S+) (No difference but slightly more sweet (0.5-0.75%))
- Sensory result versus GLU 99,000 ppm [2]: N(S+) (No difference but slightly more sweet (0.5-0.75%))
- Sensory result versus SUC 60,000 ppm [2]: +S (More sweetness intensity (~1.0% SE))
- Sweetness of the composition after enhancement [8]: about 7 % SE

Compound: CC1(C(=O)OC2OC(CO)C(O)C(O)C2O)CCCC2(C)C3CCC4(OC5OC(CO)C(O)C(OC6OC(CO)C(O)C(O)C6O)C5OC5OC(CO)C(O)C(O)C5O)CC3(CCC12)CC4(C)O [13-[(2-O-β-D-glucopyranosyl-3-O-β-D-glucopyranosyl-β-D-glucopyranosyl)oxy]-16-hydroxy kauran-18-oic acid β-D-glucopyranosyl ester]
- Sweetness Threshold Level [1, 10]: 700 ppm
- Sweetness Detection Threshold Level ([1]; single assessor): 700 ppm
- Sensory result versus FRU 55,000 ppm [2]: N
- Sensory result versus GLU 99,000 ppm [2]: N
- Sensory result versus SUC 60,000 ppm [2]: N
- Levels After 2 Month of Storage [3]: 10 ppm
